17 molecules from ChEMBL document CHEMBL1126886, “Synthesis of 5-methyl-5-deaza nonclassical antifolates as inhibitors of dihydrofolate reductases and as potential antipneumocystis, antitoxoplasma, and antitumor agents” (J Med Chem, 1993) can be followed below.

Some results are limits rather than exact numbers.

For assay [1], the target named is T1, Dihydrofolate reductase (Pneumocystis carinii, UniProt P16184).
T1 sequence (P16184 whole entry): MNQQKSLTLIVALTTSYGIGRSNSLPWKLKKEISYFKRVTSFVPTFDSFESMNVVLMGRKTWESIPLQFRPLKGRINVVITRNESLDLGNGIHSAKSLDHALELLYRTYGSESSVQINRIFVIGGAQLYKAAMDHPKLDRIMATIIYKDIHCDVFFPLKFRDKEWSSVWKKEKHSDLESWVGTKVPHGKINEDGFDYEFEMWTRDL
Description: Inhibition of Pneumocystis carinii dihydrofolate reductase

Assay [2] has as its target T2, Dihydrofolate reductase (Rattus norvegicus, UniProt Q920D2).
T2 sequence (Q920D2 whole entry): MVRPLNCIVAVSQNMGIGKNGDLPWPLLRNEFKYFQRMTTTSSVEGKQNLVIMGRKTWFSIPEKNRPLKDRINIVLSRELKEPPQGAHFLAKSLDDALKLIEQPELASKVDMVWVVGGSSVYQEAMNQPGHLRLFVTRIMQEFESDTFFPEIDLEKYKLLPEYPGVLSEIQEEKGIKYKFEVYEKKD
Description: Inhibition of rat liver dihydrofolate reductase

The subject of assay [3] is ACHN. Briefly: Inhibitory concentration required to decrease cell viability in cell growth culture against kidney cells ACHN. Type of assay: functional, cell-based. The settings on record: Homo sapiens.
Assay [4] has as its system CCRF-CEM. The assay is described as follows: Inhibitory concentration required to decrease cell viability in cell growth culture against leukemia cells CCRF-CEM. As to conditions: Homo sapiens; call rule not given here. Type of assay: functional, cell-based.
Assay [5] addresses T3, Bifunctional dihydrofolate reductase-thymidylate synthase (Toxoplasma gondii, UniProt Q07422).
T3 sequence (Q07422 whole entry): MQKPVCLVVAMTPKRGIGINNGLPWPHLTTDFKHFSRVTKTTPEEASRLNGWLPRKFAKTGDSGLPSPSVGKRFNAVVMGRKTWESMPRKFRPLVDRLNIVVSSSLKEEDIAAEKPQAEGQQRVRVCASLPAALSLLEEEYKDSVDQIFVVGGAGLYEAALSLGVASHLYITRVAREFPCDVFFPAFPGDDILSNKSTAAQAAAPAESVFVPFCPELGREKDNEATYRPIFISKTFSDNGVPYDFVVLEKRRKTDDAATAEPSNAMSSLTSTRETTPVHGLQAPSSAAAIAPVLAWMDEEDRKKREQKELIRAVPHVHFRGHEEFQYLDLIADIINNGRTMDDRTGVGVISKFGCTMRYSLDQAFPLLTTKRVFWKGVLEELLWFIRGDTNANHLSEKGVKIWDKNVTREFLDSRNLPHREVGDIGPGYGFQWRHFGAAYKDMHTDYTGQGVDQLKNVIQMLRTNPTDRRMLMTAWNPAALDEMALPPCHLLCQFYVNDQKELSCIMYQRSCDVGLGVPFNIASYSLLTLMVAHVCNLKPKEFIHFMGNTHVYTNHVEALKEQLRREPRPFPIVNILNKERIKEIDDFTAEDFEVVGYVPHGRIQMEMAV
Briefly: Inhibition of Toxoplasma gondii dihydrofolate reductase.

Assay [6] concerns HCT-116. The assay is described as follows: Inhibitory concentration required to decrease cell viability in cell growth culture against colon carcinoma cells HCT116. Type of assay: functional, cell-based. As to conditions: Homo sapiens.
Assay [7] concerns MCF7S. The assay is described as follows: Inhibitory concentration required to decrease cell viability in cell growth culture against breast carcinoma cells MCF-7. Format: functional, cell-based. The settings on record: Homo sapiens.
A short description of assay [8]: Inhibitory concentration required to decrease cell viability in cell growth culture against melanoma SK5 MeI. Format: functional. As to conditions: Homo sapiens.
In assay [9] the test system is Toxoplasma gondii. The assay is described as follows: Inhibitory concentration of Toxoplasma gondii cells in human embryonic lung cells with minimum essential medium; inactive. Type of assay: functional, organism-based.
Assay [10] deals with T2, Dihydrofolate reductase. Briefly: Inhibitory concentration against rat liver dihydrofolate reductases.
The subject of assay [11] is Pneumocystis carinii. The assay is described as follows: Inhibitory concentration against Pneumocystis carinii cells in human embryonic lung fibrobalstic cell culture with MEM at 1 ug/mL. Type of assay: functional, organism-based.
Assay [12] concerns the target T4, Dihydrofolate reductase (Lactobacillus casei, UniProt P00381). Briefly: Inhibitory concentration against Lactobacillus casei dihydrofolate reductase. Also noted: species or system Lacticaseibacillus casei.
The test system of assay [13] is Pneumocystis carinii. Briefly: (§1) Inhibitory concentration against Pneumocystis carinii cells in human embryonic lung fibrobalstic cell culture with MEM at 10 ug/mL. Format: functional, organism-based.
The subject of assay [14] is Toxoplasma gondii. The assay is described as follows: Inhibitory concentration of Toxoplasma gondii cells in human embryonic lung cells with minimum essential medium. Type of assay: functional, organism-based.
Assay [15] deals with Pneumocystis carinii. The assay is described as §1.
The target of assay [16] is T4, Dihydrofolate reductase. Briefly: (§2) Inhibitory concentration against Lactobacillus casei. Set-up: species or system Lacticaseibacillus casei.
Assay [17] relates to Pneumocystis carinii. The assay is described as follows: microbe, parasite or virus in culture.
Description: Inhibitory concentration against Pneumocystis carinii cells in human embryonic lung fibrobalstic cell culture with MEM at 250 ug/mL
Assay [18] has as its system Pneumocystis carinii. The assay is described as follows: Inhibitory concentration against Pneumocystis carinii cells in human embryonic lung fibrobalstic cell culture with MEM at 50 ug/mL.
Assay [19] concerns Lacticaseibacillus casei. The assay is described as §2. Type of assay: functional, organism-based.

What is called IC50 is the midpoint of a concentration-inhibition curve. Read a high IC50 as weaker potency in that assay. Broadly, the % inhibition is the percentage by which the read-out fell short of the control. Low values mean a weak effect, high ones a strong effect. As usually defined, the inhibition is the percentage by which the read-out fell short of the control. A higher inhibition goes with a strong effect.

T4 sequence (P00381 whole entry): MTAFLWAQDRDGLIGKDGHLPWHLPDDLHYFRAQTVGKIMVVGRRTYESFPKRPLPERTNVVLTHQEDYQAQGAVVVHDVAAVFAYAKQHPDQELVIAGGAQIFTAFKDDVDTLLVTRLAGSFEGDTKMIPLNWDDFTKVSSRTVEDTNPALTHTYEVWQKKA

Turning to `COc1cc(N(C=O)CC2=CNc3nc(N)nc(N)c3C2C)cc(OC)c1OC` (stereo unspecified), the 50% inhibitory concentration (IC50) in assay [1] and in assay [2] was over 2600 nM in each case.
With `COc1cc(N(C=O)Cc2cnc3nc(N)nc(N)c3c2C)cc(OC)c1OC`, the IC50 in [3] was over 112000 nM; in assay [4], 610 nM; in assay [5], 13 nM; in assay [6], over 112000 nM; in assay [7], over 100000 nM; in assay [8], over 112000 nM. Further, the IC50 result in [9] is “Not Active”; in [1] it was 550 nM; in assay [2], 110 nM.
In the case of `Cc1c(CN(C=O)c2ccc(Cl)c(Cl)c2)cnc2nc(N)nc(N)c12`, the IC50 worked out at 91400 nM in assay [3]; 210 nM in assay [4]; 83 nM in assay [5]; 140 nM in assay [10]; 16000 nM in assay [6]; 106000 nM in assay [7]. The figures for the IC50 in [8] and in [1] were 25100 nM and 510 nM, respectively.
As to `COc1cc(N(C=O)CC2CNc3nc(N)nc(N)c3C2C)cc(OC)c1OC` (stereo unspecified), the IC50 in assay [1] and in assay [2] was over 1200 nM in each case.
In [11], `COc1cc(NCc2cnc3nc(N)nc(N)c3c2C)cc(OC)c1OC.O=C(O)[C@H]1O[C@H](O)[C@H](O)[C@@H](O)[C@@H]1O` registered a % inhibition of 2%.
With `COc1cc(NCc2cnc3nc(N)nc(N)c3c2C)cc(OC)c1OC`, the IC50 is over 100000 nM in assay [3]; 130 nM in [4]; 22 nM in assay [12]; 71700 nM in assay [6]; over 100000 nM in assay [7]; over 100000 nM in assay [8]. In addition, the IC50 in assay [14] was 23000 nM; in [2], 2.1 nM. For the same molecule, the values for the % inhibition in assay [11] and in assay [13] were 56% and 77%, respectively.
The molecule `COc1cc(NCc2cnc3nc(N)nc(N)c3c2C)cc(OC)c1OC.O=C(O)[C@H]1OC(O)[C@H](O)[C@@H](O)[C@@H]1O` gave a % inhibition in assay [15] of 57%.
On to `Cc1c(CN(C=O)c2cc(Cl)c(Cl)c(Cl)c2)cnc2nc(N)nc(N)c12`, for which the half-maximal inhibitory concentration (IC50) in assay [4] turned out to be 30 nM; in [5] it was 94 nM; in [1], 520 nM; in assay [2], 250 nM.
In the case of `Cc1c(CNc2cc(Cl)c(Cl)c(Cl)c2)cnc2nc(N)nc(N)c12`, the IC50 is 200 nM in assay [4]; 12 nM in assay [5]; over 100000 nM in assay [7]; 63 nM in [1]; 33 nM in assay [2].
Take `COc1cc(NCC2CNc3nc(N)nc(N)c3C2C)cc(OC)c1OC` (stereo unspecified): the figures for the IC50 in assay [1] and in assay [2] were over 3700 nM and 3700 nM, respectively.
Consider `COc1cc(N(C)Cc2cnc3nc(N)nc(N)c3c2C)cc(OC)c1OC`, for which the IC50 was over 100000 nM in [3]; 20 nM in assay [4]; 200 nM in [12]; 37900 nM in [6]; over 100000 nM in assay [7]; over 100000 nM in [8]. Moreover, the IC50 in [14] came to 4700 nM; in assay [2] it was 7.6 nM. Besides, the % inhibition in assay [11] amounted to 65%; in assay [13], 74%.
Take `Cc1c(CNc2ccc(Cl)c(Cl)c2)cnc2nc(N)nc(N)c12`: the half-inhibitory concentration (IC50) in assay [3] is 22900 nM; in [4], 100 nM; in assay [16], 860 nM; in assay [5], 28 nM; in [6] it was 28600 nM; in assay [7] it was 94500 nM. Also, the 50% inhibitory concentration (IC50) was found to be 7730 nM in assay [8], 320 nM in assay [1] and 53 nM in assay [2].
On to `Cc1c(CN(C)c2cc(Cl)c(Cl)c(Cl)c2)cnc2nc(N)nc(N)c12`, for which the 50% inhibitory concentration (IC50) in assay [4] amounted to 200 nM; in assay [16] it was 36 nM; in [5], 38.1 nM; in assay [7], 18200 nM; in [1] it was 105 nM; in assay [2], 36.3 nM.
As for `Cc1c(CN(C)c2ccc(Cl)c(Cl)c2)cnc2nc(N)nc(N)c12`, the IC50 amounted to 70200 nM in assay [3]; 10 nM in [4]; 960 nM in assay [16]; 27 nM in [5]; 5300 nM in assay [6]; 9600 nM in assay [7]. The IC50 was found to be 21200 nM in assay [8], 100 nM in [1] and 42 nM in assay [2].
For `COc1cc(Cc2cnc(N)nc2N)cc(OC)c1OC.Cc1cc(NS(=O)(=O)c2ccc(N)cc2)no1` [CO-TRIMOXAZOLE], in [17], testing at 250 µg/mL gave an inhibition of 84%.
Take `COc1cc(Cc2cnc(N)nc2N)cc(OC)c1OC` [TRIMETHOPRIM]: the inhibition at 50 µg/mL in [18] worked out at 84%.
`COc1cc(NCc2ccc3nc(N)nc(N)c3c2C)cc(OC)c1OC` [TRIMETREXATE]: in assay [19], the IC50 was found to be 27 nM.
